Test results published in patent US10851083B2, “Benzoimidazoles as prolyl hydroxylase inhibitors” (Janssen Pharmaceutica NV, priority 2008, dated 2020).

What was measured:
Hep-3B cells = experiment: Cellular assay: EPO secretion in Hep-3B cells; type: cell-based, human; design: EPO secretion, % of control compound: dose or concentration left out as unconfirmed; settings: Homo sapiens, Hep3B, 24 h, EPO secretion as percentage of control compound 7-[(4-Chloro-phenyl)-(5-methyl-isoxazol-3-ylamino)-methyl]-quinolin-8-ol, read-out: Cellular % EPO Stimulation
human PHD2181-417 = human PHD2181-417 (Homo sapiens (Human), UniProt Q9GZT9); experiment: PHD2 enzyme activity assay ([14C]-succinic acid production); type: biochemical; settings: PHD2181-417 polypeptide, HIF-1α peptide 10 μM, [5-14C]-2-oxoglutaric acid; 30 min pre-incubation; tested 10 μM to 3 nM;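 further: reaction ran 10 min with compound in Tris pH 7.5 buffer with catalase, DTT and ascorbate, labelled succinate freed of leftover 2-oxoglutarate by DNP precipitation, then beta counted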
human PHD2181-417, sequence (Q9GZT9 181-417): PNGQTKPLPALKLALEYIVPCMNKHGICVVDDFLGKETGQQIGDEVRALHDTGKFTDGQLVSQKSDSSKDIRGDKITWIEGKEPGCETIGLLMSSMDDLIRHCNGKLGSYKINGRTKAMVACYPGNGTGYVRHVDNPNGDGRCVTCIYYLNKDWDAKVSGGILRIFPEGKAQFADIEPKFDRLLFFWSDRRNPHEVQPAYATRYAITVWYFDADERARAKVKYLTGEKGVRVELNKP

COc1ccc(S(=O)(=O)c2cc3nc(-n4cc(C(=O)O)cn4)[nH]c3cc2Cl)cc1 [Example 84, 1-[6-Chloro-5-(4-methoxy-benzenesulfonyl)-1H-benzoimidazol-2-yl]-1H-pyrazole-4-carboxylic Acid]
EPO secretion, % of control compound (Hep-3B cells): 42.7%
Enzyme pIC50 (human PHD2181-417): 7.3

O=C(O)c1cnn(-c2nc3cc(S(=O)(=O)c4ccc(Cl)cc4)c(Cl)cc3[nH]2)c1 [Example 85, 1-[6-Chloro-5-(4-chloro-benzenesulfonyl)-1H-benzoimidazol-2-yl]-1H-pyrazole-4-carboxylic Acid]
EPO secretion, % of control compound (Hep-3B cells): 51.6%
Enzyme pIC50 (human PHD2181-417): 7.3

O=C(O)c1cnn(-c2nc3cc(S(=O)(=O)c4ccc(OC(F)(F)F)cc4)c(Cl)cc3[nH]2)c1 [Example 86, 1-[6-Chloro-5-(4-trifluoromethoxy-benzenesulfonyl)-1H-benzoimidazol-2-yl]-1H-pyrazole-4-carboxylic Acid]
EPO secretion, % of control compound (Hep-3B cells): 48.9%
Enzyme pIC50 (human PHD2181-417): 7.3

O=C(O)c1cnn(-c2nc3cc(S(=O)(=O)c4ccc(Cl)c(Cl)c4)c(Cl)cc3[nH]2)c1 [Example 87, 1-[6-Chloro-5-(3,4-dichloro-benzenesulfonyl)-1H-benzoimidazol-2-yl]-1H-pyrazole-4-carboxylic Acid]
EPO secretion, % of control compound (Hep-3B cells): 32.4%
Enzyme pIC50 (human PHD2181-417): 6.68

COc1cccc(S(=O)(=O)c2cc3nc(-n4cc(C(=O)O)cn4)[nH]c3cc2Cl)c1 [Example 88, 1-[6-Chloro-5-(3-methoxy-benzenesulfonyl)-1H-benzoimidazol-2-yl]-1H-pyrazole-4-carboxylic Acid]
EPO secretion, % of control compound (Hep-3B cells): 69.4%
Enzyme pIC50 (human PHD2181-417): 7.4

O=C(O)c1cnn(-c2nc3cc(S(=O)(=O)Cc4ccccc4)c(Cl)cc3[nH]2)c1 [Example 89, 1-(6-Chloro-5-phenylmethanesulfonyl-1H-benzoimidazol-2-yl)-1H-pyrazole-4-carboxylic Acid]
EPO secretion, % of control compound (Hep-3B cells): 28.4%
Enzyme pIC50 (human PHD2181-417): 7.5

Cc1cc(C)c(CS(=O)(=O)c2cc3nc(-n4cc(C(=O)O)cn4)[nH]c3cc2Cl)c(C)c1 [Example 90, 1-[6-Chloro-5-(2,4,6-trimethyl-phenylmethanesulfonyl)-1H-benzoimidazol-2-yl]-1H-pyrazole-4-carboxylic Acid]
EPO secretion, % of control compound (Hep-3B cells): 8.25%
Enzyme pIC50 (human PHD2181-417): 7.3

COc1ccc(CS(=O)(=O)c2cc3nc(-n4cc(C(=O)O)cn4)[nH]c3cc2Cl)cc1 [Example 91, 1-[6-Chloro-5-(4-methoxy-phenylmethanesulfonyl)-1H-benzoimidazol-2-yl]-1H-pyrazole-4-carboxylic Acid]
EPO secretion, % of control compound (Hep-3B cells): 22%
Enzyme pIC50 (human PHD2181-417): 7.7

O=C(O)c1cnn(-c2nc3cc(S(=O)(=O)Cc4ccc(F)cc4)c(Cl)cc3[nH]2)c1 [Example 92, 1-[6-Chloro-5-(4-fluoro-phenylmethanesulfonyl)-1H-benzoimidazol-2-yl]-1H-pyrazole-4-carboxylic Acid]
EPO secretion, % of control compound (Hep-3B cells): 61.2%
Enzyme pIC50 (human PHD2181-417): 7.5

O=C(O)c1cnn(-c2nc3cc(S(=O)(=O)Cc4ccccc4Cl)c(Cl)cc3[nH]2)c1 [Example 93, 1-[6-Chloro-5-(2-chloro-phenylmethanesulfonyl)-1H-benzoimidazol-2-yl]-1H-pyrazole-4-carboxylic Acid]
EPO secretion, % of control compound (Hep-3B cells): 78.5%
Enzyme pIC50 (human PHD2181-417): 7.5

O=C(O)c1cnn(-c2nc3cc(S(=O)(=O)CCc4ccccc4)c(Cl)cc3[nH]2)c1 [Example 94, 1-[6-Chloro-5-(2-phenyl-ethanesulfonyl)-1H-benzoimidazol-2-yl]-1H-pyrazole-4-carboxylic Acid]
EPO secretion, % of control compound (Hep-3B cells): 65.1%
Enzyme pIC50 (human PHD2181-417): 7.4

CC[S+]([O-])c1cc2[nH]c(-n3cc(C(=O)O)cn3)nc2cc1Cl (centres unmarked) [Example 95, 1-(5-Chloro-6-ethanesulfinyl-1H-benzoimidazol-2-yl)-1H-pyrazole-4-carboxylic Acid]
EPO secretion, % of control compound (Hep-3B cells): 46.3%
Enzyme pIC50 (human PHD2181-417): 7.2

CCS(=O)(=O)c1cc2[nH]c(-n3cc(C(=O)O)cn3)nc2cc1Cl [Example 96, 1-(5-Chloro-6-ethanesulfonyl-1H-benzoimidazol-2-yl)-1H-pyrazole-4-carboxylic Acid]
EPO secretion, % of control compound (Hep-3B cells): 67%
Enzyme pIC50 (human PHD2181-417): 7.4

CS(=O)(=O)c1cc2[nH]c(-n3cc(C(=O)O)cn3)nc2cc1C(F)(F)F [Example 97, 1-(6-Methanesulfonyl-5-trifluoromethyl-1H-benzoimidazol-2-yl)-1H-pyrazole-4-carboxylic Acid]
EPO secretion, % of control compound (Hep-3B cells): 75.9%
Enzyme pIC50 (human PHD2181-417): 7.6

CS(=O)(=O)c1cc2[nH]c(-n3cc(C(=O)O)cn3)nc2cc1F [Example 98, 1-(5-Fluoro-6-methanesulfonyl-1H-benzoimidazol-2-yl)-1H-pyrazole-4-carboxylic Acid]
EPO secretion, % of control compound (Hep-3B cells): 41.4%
Enzyme pIC50 (human PHD2181-417): 7.3

CS(=O)(=O)c1cc2[nH]c(-n3cc(C(=O)O)cn3)nc2cc1Cl [Example 99, 1-(5-Chloro-6-methanesulfonyl-1H-benzoimidazol-2-yl)-1H-pyrazole-4-carboxylic Acid]
EPO secretion, % of control compound (Hep-3B cells): 34.9%
Enzyme pIC50 (human PHD2181-417): 7.4

CS(=O)(=O)c1cc2[nH]c(-n3cc(C(=O)O)cn3)nc2cc1OC(F)(F)F [Example 100, 1-(6-Methanesulfonyl-5-trifluoromethoxy-1H-benzoimidazol-2-yl)-1H-pyrazole-4-carboxylic Acid]
EPO secretion, % of control compound (Hep-3B cells): 50.2%
Enzyme pIC50 (human PHD2181-417): 7.5

CC(C)S(=O)(=O)c1cc2[nH]c(-n3cc(C(=O)O)cn3)nc2cc1Cl [Example 101, 1-[5-Chloro-6-(propane-2-sulfonyl)-1H-benzoimidazol-2-yl]-1H-pyrazole-4-carboxylic Acid]
EPO secretion, % of control compound (Hep-3B cells): 62.2%
Enzyme pIC50 (human PHD2181-417): 7.3

CCCS(=O)(=O)c1cc2[nH]c(-n3cc(C(=O)O)cn3)nc2cc1Cl [Example 102, 1-[5-Chloro-6-(propane-1-sulfonyl)-1H-benzoimidazol-2-yl]-1H-pyrazole-4-carboxylic Acid]
EPO secretion, % of control compound (Hep-3B cells): 54.9%
Enzyme pIC50 (human PHD2181-417): 7.5

CCCS(=O)(=O)c1cc2[nH]c(-n3cc(C(=O)O)cn3)nc2cc1OC(F)(F)F [Example 106, 1-[6-(Propane-1-sulfonyl)-5-trifluoromethoxy-1H-benzoimidazol-2-yl]-1H-pyrazole-4-carboxylic Acid]
EPO secretion, % of control compound (Hep-3B cells): 124%
Enzyme pIC50 (human PHD2181-417): 7.5

O=C(O)c1cnn(-c2nc3cc([S+]([O-])c4ccc(Cl)cc4)c(Cl)cc3[nH]2)c1 (centres unmarked) [Example 107]
EPO secretion, % of control compound (Hep-3B cells): 47.6%
Enzyme pIC50 (human PHD2181-417): 7.2

C[S+]([O-])c1cc2[nH]c(-n3cc(C(=O)O)cn3)nc2cc1C(F)(F)F (centres unmarked) [Example 108, 1-(6-Methanesulfinyl-5-trifluoromethyl-1H-benzoimidazol-2-yl)-1H-pyrazole-4-carboxylic Acid]
EPO secretion, % of control compound (Hep-3B cells): 20.4%
Enzyme pIC50 (human PHD2181-417): 7.3

O=C(O)c1cnn(-c2nc3cc(F)c(Br)cc3[nH]2)c1 [Example 109, 1-(6-Bromo-5-fluoro-1H-benzoimidazol-2-yl)-1H-pyrazole-4-carboxylic Acid]
EPO secretion, % of control compound (Hep-3B cells): 99%
Enzyme pIC50 (human PHD2181-417): 6.7

O=C(O)c1cnn(-c2nc3c(F)cccc3[nH]2)c1 [Example 110, 1-(4-Fluoro-1H-benzoimidazol-2-yl)-1H-pyrazole-4-carboxylic Acid]
EPO secretion, % of control compound (Hep-3B cells): 45.9%
Enzyme pIC50 (human PHD2181-417): 6.2

O=C(O)c1cnn(-c2nc3c(F)c(F)ccc3[nH]2)c1 [Example 111, 1-(4,5-Difluoro-1H-benzoimidazol-2-yl)-1H-pyrazole-4-carboxylic Acid]
EPO secretion, % of control compound (Hep-3B cells): 32.6%
Enzyme pIC50 (human PHD2181-417): 6.6

O=C(O)c1cnn(-c2nc3c(F)cc(F)cc3[nH]2)c1 [Example 112, 1-(4,6-Difluoro-1H-benzoimidazol-2-yl)-1H-pyrazole-4-carboxylic Acid]
EPO secretion, % of control compound (Hep-3B cells): 32%
Enzyme pIC50 (human PHD2181-417): 6.8

O=C(O)c1cnn(-c2nc3cc(OC(F)(F)F)c(Cl)cc3[nH]2)c1 [Example 113, 1-(6-Chloro-5-trifluoromethoxy-1H-benzoimidazol-2-yl)-1H-pyrazole-4-carboxylic Acid]
EPO secretion, % of control compound (Hep-3B cells): 109%
Enzyme pIC50 (human PHD2181-417): 6.98

O=C(O)c1cnn(-c2nc3cc4ccccc4cc3[nH]2)c1 [Example 114, 1-(1H-Naphtho[2,3-d]imidazol-2-yl)-1H-pyrazole-4-carboxylic Acid]
EPO secretion, % of control compound (Hep-3B cells): 144%
Enzyme pIC50 (human PHD2181-417): 6.3

O=C(O)c1cnn(-c2nc3c(ccc4ccccc43)[nH]2)c1 [Example 115, 1-(3H-Naphtho[1,2-d]imidazol-2-yl)-1H-pyrazole-4-carboxylic Acid]
EPO secretion, % of control compound (Hep-3B cells): 50%
Enzyme pIC50 (human PHD2181-417): 6.1

Cc1c(F)ccc2[nH]c(-n3cc(C(=O)O)cn3)nc12 [Example 116, 1-(5-Fluoro-4-methyl-1H-benzoimidazol-2-yl)-1H-pyrazole-4-carboxylic Acid]
EPO secretion, % of control compound (Hep-3B cells): 18.3%
Enzyme pIC50 (human PHD2181-417): 5.8

O=C(O)c1cnn(-c2nc3cc(N4CCCCC4)c(OC(F)(F)F)cc3[nH]2)c1 [Example 117, 1-(5-Piperidin-1-yl-6-trifluoromethoxy-1H-benzoimidazol-2-yl)-1H-pyrazole-4-carboxylic Acid]
EPO secretion, % of control compound (Hep-3B cells): 80%
Enzyme pIC50 (human PHD2181-417): 6.5

O=C(O)c1cnn(-c2nc3cc(F)c(N4CCCCC4)cc3[nH]2)c1 [Example 118, 1-(5-Fluoro-6-piperidin-1-yl-1H-benzoimidazol-2-yl)-1H-pyrazole-4-carboxylic Acid]
EPO secretion, % of control compound (Hep-3B cells): 152%
Enzyme pIC50 (human PHD2181-417): 6.8

CCOc1cc2[nH]c(-n3cc(C(=O)O)cn3)nc2cc1F [Example 119, 1-(6-Ethoxy-5-fluoro-1H-benzoimidazol-2-yl)-1H-pyrazole-4-carboxylic Acid]
EPO secretion, % of control compound (Hep-3B cells): 69%
Enzyme pIC50 (human PHD2181-417): 6.5

O=C(O)c1cnn(-c2nc3cc(C(=O)Nc4ccccc4)ccc3[nH]2)c1 [Example 120, 1-(5-Phenylcarbamoyl-1H-benzoimidazol-2-yl)-1H-pyrazole-4-carboxylic Acid]
EPO secretion, % of control compound (Hep-3B cells): 21.1%
Enzyme pIC50 (human PHD2181-417): 6.9
